The values that follow come from PubChem BioAssay AID588404 (Broad Institute, 2011).

The structures appear in SMILES notation. Records with an inconclusive call do not appear. Calls of active or inactive are those of the source.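 The calls were made as follows: active = every replicate run active, meaning lowered signal with potency within ten times the top valid dose; inconclusive = runs neither all active nor all inactive; inactive = all replicate runs inactive, including opposite-direction effects.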

The AC50 is the concentration giving half of the maximal activity seen.

The first test deals with S. cerevisiae expressing HsHsp90, growth, BacTiter-Glo 48 h. Briefly: growth inhibition of HsHsp90-dependent yeast, dose response, counter-screen for P. falciparum Hsp90 inhibitor project, plate reader, dry powder samples (AID 588404).
Conditions: not given
(A counterscreen serves to expose hits that act by an unwanted route or on another target.)
Regarding `O=C(O)/C=C/c1cn(-c2ccccc2)nc1-c1cc2ccccc2o1`, the AC50 is 9.22 µM.

`CCN(CC)c1ccc(/C=C2/SC(=O)N(C(C)C)C2=O)o1`: the AC50 is 12.3 µM.

With `O=S(=O)(/C=C/c1ccccc1)NC1CCCCCCC1`, the AC50 is 19.8 µM.

On to `O=S(=O)(NC1CC2CCC1C2)c1ccc(Cl)cc1` (centres undefined), for which the half-maximal activity concentration (AC50) is 7.89 µM.

Consider `O=C1C(Cl)=C(Oc2ccccc2)C(=O)c2ccccc21`, for which the AC50 is < 2.35 µM.

As to `CCOc1cc(S(=O)(=O)NC2CCCCCC2)ccc1F`, the concentration at half-maximal activity (AC50) is 26.6 µM.

As to `O=S(=O)(NC1CCCCCC1)c1ccc(Br)s1`, the concentration at half-maximal activity (AC50) is 6.82 µM.

Test system in another test: not listed separately
Described as above. The following applies: S. cerevisiae expressing HsHsp90, growth, BacTiter-Glo 48 h; at 150 µM (top of the series).
Take `O=C1C(Cl)=C(NCCc2ccccc2)C(=O)c2ccccc21`: the activity change, negative = inhibition is 20.9% (inactive).

Consider `COc1ccc2c(c1)[nH]c1c(C)nccc12`, for which the activity change, negative = inhibition was 9.79% (inactive).
